Results published in patent publication US9279812B2, “Neuregulin-1-based prognosis and therapeutic stratification of colorectal cancer” (UNIVERSITEIT GENT, priority 2011, dated 2016).

How the values were obtained:
HCT-8/E11 cells [1] = test: Single cell collagen invasion assay, HCT-8/E11; type: cell-based, human; settings: for CM^BM-MSC-induced invasion (invasion index) / CM^BM-MSC-induced morphological response (factor shape): cetuximab 3 μM, lapatinib 1 μM, trastuzumab and pertuzumab 25 μg/ml
Method: (§1) Collagen invasion assays were performed as described previously (45). Briefly, 1×10^5 CRC cells were seeded on type I collagen-coated 6-well plates and treated with CM derived from 5×10^5 BM-MSC or T-MC supplemented with DMEM 10% FBS and antibiotics as indicated.
(§2) Morphology and invasion into collagen was analysed after 24 hours and quantified by means of the factor shape ([perimeter]^2/[4πarea]) and invasion index. The number of invasive and noninvasive cells was counted in 10 randomly selected microscopic fields with a 20× objective and 10× eye piece by two blinded observers using an inverted phase-contrast microscope (DMI 3000B; Leica, Wetzlar, Germany). The invasion index was calculated as the ratio of the number of cells that invaded the gel divided by the total number of cells counted in each field. Collagen matrices were fixed in 3% paraformaldehyde for 10 minutes and phalloidin-TRITC (Sigma-Aldrich) staining as described (45). Cells were imaged with a Zeiss 510 META confocal laser-scanning microscope (Carl Zeiss, Micro-imaging Inc., Heidelberg, Germany) using a 488 argon and a 543 HeNe laser. Images were acquired using a Plan Apochromat 63×/1.4 oil DIC or a Plan Apochromat 100×/1.4 oil DIC objective. All the images shown are collapsed z-stacks.

HER3 = test: Western blot of Y1289 p-HER3 (HER3 activation) in HCT-8/E11 cells; type: cell-based, human; settings: for decrease in CM^BM-MSC-induced HER3 activation (Y1289 p-HER3): HCT-8/E11, CM^BM-MSC 15 minutes, cetuximab 3 μM, lapatinib 1 μM, trastuzumab and pertuzumab 25 μg/ml
Method: (§3) Cells were harvested with Laemmli lysis buffer (0.125M Tris-HCl (pH=6.8), 10% glycerol, 2.3% sodium dodecyl sulfate [SDS]). Cell surface proteins were isolated by biotinylation (Pierce). For the detection of phosphorylated proteins, cells were grown at 70% confluence and treated for 15 minutes as indicated. Cells were harvested with NP-40 lysis buffer (1% Nonidet P-40 [NP-40][Sigma-Aldrich], 1% Triton X-100 [Bio-Rad] in phosphate-buffered saline [PBS]) and the following protease inhibitors: aprotinin (10 μg/mL), leupeptin (10 μg/mL) (ICN Biomedicals, Costa Mesa, Calif.), phenylmethylsulfonyl fluoride (1.72 mM), NaF (100 mM), NaVO3 (500 mM), and Na4P2O7 ([…]) (Sigma-Aldrich). Cell lysates (25 μg) and CM (20 μl) were suspended in Laemmli sample buffer and boiled for 5 minutes at 95° C. For immunoprecipitation, cells were harvested with NP-40 lysis buffer, and protease inhibitors. Anti-rabbit antibodies were covalently coupled to sheep anti-rabbit IgG dynabeads (Invitrogen) and then incubated for 2 hours at 4° C. with 500 μg of cell lysate or normal rabbit IgG antibody (R&D Systems) as a negative control. Immunoprecipitates were washed five times with lysis buffer, eluted with 100 μl of Laemmli lysis buffer, and boiled at 95° C. for 5 minutes. Samples were run on NuPAGE 4%-20% Bis-Tris gradient gels (Invitrogen), transferred to polyvinylidene fluoride membranes, blocked in 5% nonfat milk in PBS or 4% bovine serum albumin (BSA) in PBS for phosphorylated proteins with 0.5% Tween-20, and immunostained. Scanning densitometry was carried out with the Quantity One Program (Bio-Rad).

AKT = test: Western blot of S473 p-AKT (AKT activation) in HCT-8/E11 cells; type: cell-based, human; settings: for reduction of AKT activation (S473 p-AKT) in CM^BM-MSC-treated cells: HCT-8/E11, CM^BM-MSC 15 minutes, cetuximab 3 μM, lapatinib 1 μM, trastuzumab and pertuzumab 25 μg/ml
Method: as §3

HER3 (human) = HER3 (human) (UniProt P21860); test: cell-based or functional assay
[2] = test system: HCT-8/E11+BM-MSC xenografts; test: s.c. xenografts of HCT-8/E11 cells with BM-MSC in Swiss nu/nu mice; type: in vivo
Method: Animal studies were approved by the Local Ethical Committee for Animal Experiments, Faculty of Medicine and Health Sciences, Ghent University, Belgium. Four-week-old female Swiss nu/nu mice (10 animals per group) (Charles River Laboratories, Brussels, Belgium) were inoculated subcutaneously (s.c.) with 10^6 CRC cells (HCT-8/E11, SW480 and HCT 116) either alone or combined with 2×10^6 BM-MSC suspended in 100 μl sterile PBS. To assess the effect of soluble factors on tumorigenesis, mice were inoculated s.c. with 10^6 cancer cells in 100 μl sterile CM derived from 2.5×10^6 BM-MSC, or control medium. For these experiments, intratumoral injection of the CM (50 μl) was performed every three days. […] Tumor volume was estimated by using the equation, V=0.4×a×b^2, where V is the volume, a is the length of the major axis of the tumor, and b is the length of its minor axis. he animals were sacrificed when the tumors were approximately 1-1.5 cm^3, in compliance with regulations for the use of vertebrate animals in research. Primary tumors were extracted, weighted and fixed in 4% buffered formol for 12 hours, followed by a wash with PBS. Fixed tumors were transferred to 70% ethanol until use. Tumors were embedded in paraffin, sectioned and stained with H&E. Immunohistochemistry (IHC) using TUNEL, anti-α-SMA (Biogenex), anti-vimentin and anti-Ki67 antibodies was performed on paraffin sections, using a NexES automated slide staining system (Ventana Medical Systems, Tucson, Ariz.). Cell proliferation (Ki67 positivity) was quantified as % of positive cancer cells per high power field averaged across 12 images from 2 primary tumors per cell line.

HCT-8/E11 cells [3] = test: Assessment of cell numbers (viable cells, serum-free); type: cell-based, human
Method: To assess the effect of rNRG-β1 or CM on cell numbers, a total of 9 wells of seeded cells were counted for each condition (triplicate samples×3 countings). First, 1×10^4 CRC cells were seeded on a 6-well plate in DMEM supplemented with 10% FCS. After 24 hours, cells were treated as indicated under serum-free conditions; medium was changed every 3 days. The total number of viable cells in each well was counted with a Countess automated cell counter (Invitrogen) every three days for 9 days; trypan blue staining was used for exclusion of dead cells.

BAX/BCL-2 = test: Western blot of BAX and BCL-2 expression in HCT-8/E11; type: cell-based, human; settings: HCT-8/E11, 10 ng/ml, 6 hours
Method: as §3, with “Samples were run on NuPAGE 4%-20% Bis-Tris gradient gels (Invitrogen), transferred to polyvinylidene fluoride membranes, blocked in 5% nonfat milk in PBS or 4% bovine serum albumin (BSA) in PBS for phosphorylated proteins with 0.5% Tween-20, and immunostained.” left out

SW480 cells = test: Single cell collagen invasion assay, SW480; type: cell-based, human; settings: SW480, 10 ng/ml, 24 hours, P=0.003
Method: as §1, §2

BAD = test: Western blot of S136 p-BAD in HCT-8/E11; type: cell-based, human; settings: rNRG-β1-treated HCT-8/E11
Method: as §3, with “Samples were run on NuPAGE 4%-20% Bis-Tris gradient gels (Invitrogen), transferred to polyvinylidene fluoride membranes, blocked in 5% nonfat milk in PBS or 4% bovine serum albumin (BSA) in PBS for phosphorylated proteins with 0.5% Tween-20, and immunostained.” left out

HER2 = test: Western blot of Y1196 and Y1248 p-HER2 in HCT-8/E11; type: cell-based, human; settings: 10 ng/ml, 15 minutes
Method: as §3, with “Samples were run on NuPAGE 4%-20% Bis-Tris gradient gels (Invitrogen), transferred to polyvinylidene fluoride membranes, blocked in 5% nonfat milk in PBS or 4% bovine serum albumin (BSA) in PBS for phosphorylated proteins with 0.5% Tween-20, and immunostained.” left out

PARP = test: Western blot of PARP cleavage in HCT 116; type: cell-based, human; settings: HCT 116, 10 ng/ml, 6 hours, compared to controls
Method: as §3, with “Samples were run on NuPAGE 4%-20% Bis-Tris gradient gels (Invitrogen), transferred to polyvinylidene fluoride membranes, blocked in 5% nonfat milk in PBS or 4% bovine serum albumin (BSA) in PBS for phosphorylated proteins with 0.5% Tween-20, and immunostained.” left out

HCT 116 cells = test: Single cell collagen invasion assay, HCT 116; type: cell-based, human; settings: HCT 116, 10 ng/ml, 24 hours, P=0.007
Method: as §1, §2

With Cn1ncc(Cl)c1-c1cc(C(=O)N[C@H](CN)Cc2ccc(F)c(F)c2)oc1Cl [GSK2141795] the “CM^BM-MSC-induced invasion” value (HCT-8/E11 cells [1]; 0.1 μM, 24 hours) was “able to block” and the “CM^BM-MSC-induced invasion” value (HCT-8/E11 cells [1]; 1 μM, 24 hours) was “able to block”.

In the case of CS(=O)(=O)CCNCc1ccc(-c2ccc3ncnc(Nc4ccc(OCc5cccc(F)c5)c(Cl)c4)c3c2)o1 [lapatinib], the “decrease in CM^BM-MSC-induced HER3 activation (Y1289 p-HER3)” value (HER3) is reported as 72%, the “CM^BM-MSC-induced invasion (invasion index)” value (HCT-8/E11 cells [1]) is reported as “blocked” and the “CM^BM-MSC-induced morphological response (factor shape)” value (HCT-8/E11 cells [1]) is reported as “blocked”. For the same molecule, the “reduction of AKT activation (S473 p-AKT) in CM^BM-MSC-treated cells” value (AKT) was 82%.

Work on “Recombinant human NRG-β1 EGF domain (from UniProt Q02297 177-241) (ligand)” yielded a Y1289 p-HER3 in HCT-8/E11 cells, Western blot, 15 minutes (HER3 (human)) of 0.25 ng/mL.

In the case of “pertuzumab: recombinant, humanized mAb that specifically binds HER2 and prevents HER2 homo- and HER2/HER3 heterodimerisation”, the “BM-MSC-enhanced tumorigenesis of HCT-8/E11 cells” value ([2]; 600 μg/mouse i.p.) is reported as “significantly delayed”, the tumor weight ([2]; 600 μg/mouse i.p. three times a week, P=0.004) is reported as “decreased” and the tumor volume ([2]; 600 μg/mouse i.p. three times a week, P=0.035) is reported as “reduced”. The “Ki67 proliferation index, difference vehicle vs treatment” value ([2]; 95% CI −4.8 to 15.2, P=0.276) was 5.2, the Ki67 proliferation index ([2]; viable areas of resected xenografts) was “did not significantly affect” and the “decrease in CM^BM-MSC-induced HER3 activation (Y1289 p-HER3)” value (HER3) was 67%. The “CM^T-MC-increased invasion” value (HCT-8/E11 cells [1]; HCT-8/E11, 24 hours, pertuzumab 25 μg/ml) was “partly inhibited”, the “CM^BM-MSC-induced invasion (invasion index)” value (HCT-8/E11 cells [1]) was “blocked” and the “CM^BM-MSC-induced morphological response (factor shape)” value (HCT-8/E11 cells [1]) was “blocked”. The “reduction of AKT activation (S473 p-AKT) in CM^BM-MSC-treated cells” value (AKT) was 79%, the “CM^BM-MSC-induced CRC cell survival (total number of viable cells)” value (HCT-8/E11 cells [3]; pertuzumab 25 μg/ml, HCT-8/E11) was “significantly decreased” and the “number of viable cells under control conditions” value (HCT-8/E11 cells [3]; pertuzumab 25 μg/ml, no CM) was “no statistically significant effect”. For the same molecule, the “CM^T-MC-increased growth of HCT-8/E11 cells (trophic effect)” value (HCT-8/E11 cells [3]; pertuzumab 25 μg/ml, serum-free) was “blocked”.

B1: rNRG-β1: Recombinant human NRG-β1 EGF domain supplied by R&D Systems (protein)
chain: SHLVKCAEKEKTFCVNGGECFMVKDLSNPSRYLCKCPNEFTGDRCQNYVMASFYKHLGIEFMEAE
For B1, the “concentration at which phosphorylation of HER3 was significant” value (HER3; HCT-8/E11, 15 minutes) was 0.25 ng/mL, the BAX/BCL-2 ratio (BAX/BCL-2) was “reduced” and the “morphological changes and invasion into a collagen matrix” value (SW480 cells) was “induced”. The “levels of S136 p-BAD” value (BAD) was “higher levels”, the “morphological changes and invasion into a collagen matrix” value (HCT-8/E11 cells [1]; HCT-8/E11, 10 ng/ml, 24 hours, P=0.049) was “induced” and the HER2 activation (HER2) was “induced HER2 activation”. For the same molecule, the PARP cleavage (PARP) was “reduced”, the “morphological changes and invasion into a collagen matrix” value (HCT 116 cells) was “induced” and the “levels of S473 p-AKT” value (AKT; rNRG-β1-treated HCT-8/E11) was “higher levels”. The HCT-8/E11 cell number (HCT-8/E11 cells [3]; 0.1, 1, 10 ng/ml, serum-free, P=0.002 at 10 ng/ml) was “dose-dependent increase”.
